Test results as given in BindingDB's records for patent US10377742 (Rigel Pharmaceuticals, 2019).
pEC50: −log10 of the molar value.

Molecular target: 5'-AMP-activated protein kinase catalytic subunit alpha-2 (Homo sapiens, UniProt P54646)
Assay: enzyme-linked immunosorbent assay
Protocol: Compounds were assayed for their ability to activate AMPK using an enzyme-linked immunosorbent assay. Reagents and procedures for measuring AMPK activation are well known and kits for AMPK activation assays are commercially available.

Chain of 5'-AMP-activated protein kinase catalytic subunit alpha-2 (P54646 whole entry): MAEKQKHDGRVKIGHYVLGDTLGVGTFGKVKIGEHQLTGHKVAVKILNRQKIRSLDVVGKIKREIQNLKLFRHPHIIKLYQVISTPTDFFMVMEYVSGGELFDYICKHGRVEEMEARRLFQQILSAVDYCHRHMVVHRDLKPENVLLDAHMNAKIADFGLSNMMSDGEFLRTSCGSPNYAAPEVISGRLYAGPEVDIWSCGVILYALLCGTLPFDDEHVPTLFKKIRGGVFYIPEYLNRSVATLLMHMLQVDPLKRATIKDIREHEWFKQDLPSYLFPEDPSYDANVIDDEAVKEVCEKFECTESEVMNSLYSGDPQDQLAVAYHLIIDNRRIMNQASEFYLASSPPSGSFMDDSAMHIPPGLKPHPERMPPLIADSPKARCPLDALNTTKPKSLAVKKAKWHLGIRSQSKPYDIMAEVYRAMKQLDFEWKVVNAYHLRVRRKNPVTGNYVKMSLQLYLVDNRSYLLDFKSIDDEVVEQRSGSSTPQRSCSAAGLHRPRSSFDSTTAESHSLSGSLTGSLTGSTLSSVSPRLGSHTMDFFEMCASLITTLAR

| SMILES | pEC50 |
| --- | --- |
| O=C(Nc1ccccc1-c1ccccc1)c1ccc(C(=O)N2CCN(Cc3ccc(F)cc3)CC2)cn1 [US10377742, Compound 19] | < 6.00 |
| O=C(Nc1ccc(-c2ccc([N+](=O)[O-])cc2)cc1)c1ccc(C(=O)N2CCN(Cc3ccc(F)cc3)CC2)cn1 [US10377742, Compound 20] | < 6.00 |
